From patent publication US11992506B2, “Stem cell derived pancreatic islet differentiation” (Vertex Pharmaceuticals Incorporated, priority 2021, dated 2024)
“And” between values parts separate entries of the source, which are not always exact repeats. Equal values may be shown once.

How the values were obtained:
[1] = system: PDX1-positive, NKX-negative cells; assay: Effects of differentiation agents on pancreatic islet cell differentiation (ISL1/NKX6.1 flow cytometry); type: cell-based; conditions: for % of beta cells in S5D6 cell population: agents added to the base protocol on S4D5, S5D1, S5D2, FOXOi 1 μM, XAV 2 μM (present S5D1-4), TPB or PDBU 0.5 μM, XXI 2 μM
Protocol: FoxO1 inhibitor (FoxOi), Wnt inhibitor (XAV), Notch inhibitor (XXI), and/or PKC activator (PDBU or TPB) were tested for their effects on pancreatic islet cell differentiation.
PDX1-positive, NKX-negative cells were administered KGF (50 ng/ml), Sant-1 (250 nM), thiazovivin (2.5 μM), activin A (5 ng/ml), and retinoic acid (100 nM) for a period of six days (S4D1-S4D6) in a media including polyvinyl alcohol-80 (PVA-80) to generate a second population of cells. On day S4D5, the cells may also have been administered an additional reagent or combination of reagents as outlined in Table 5. After the six days, the second population of cells was administered XXI (2 μM), Alk5i (10 μM), GC-1 (1 μM), LDN-193189 (100 nM), thiazovivin (2.5 μM), staurosporine (3 nM), DZNEP (100 nM), Sant-1 (250 nM), retinoic acid (50 nM), and betacellulin (20 ng/ml) for two days (S5D1-S5D2) in a media comprising PVA-89. On days S5D1 and S5D2, the cells may also have been administered an additional reagent or combination of reagents as outlined in Table 5. On days S5D3-S5D6, the cells were administered XXI (2 μM), Alk5i (10 μM), GC-1 (1 μM), LDN-193189 (100 nM), thiazovivin (2.5 μM), staurosporine (3 nM), and DZNEP (100 nM). Cells were collected for analysis on day […].

EZH2 = EZH2 (Homo sapiens, UniProt Q15910); conditions: cited from earlier work
Sequence of EZH2 (Q15910 whole entry, species assumed): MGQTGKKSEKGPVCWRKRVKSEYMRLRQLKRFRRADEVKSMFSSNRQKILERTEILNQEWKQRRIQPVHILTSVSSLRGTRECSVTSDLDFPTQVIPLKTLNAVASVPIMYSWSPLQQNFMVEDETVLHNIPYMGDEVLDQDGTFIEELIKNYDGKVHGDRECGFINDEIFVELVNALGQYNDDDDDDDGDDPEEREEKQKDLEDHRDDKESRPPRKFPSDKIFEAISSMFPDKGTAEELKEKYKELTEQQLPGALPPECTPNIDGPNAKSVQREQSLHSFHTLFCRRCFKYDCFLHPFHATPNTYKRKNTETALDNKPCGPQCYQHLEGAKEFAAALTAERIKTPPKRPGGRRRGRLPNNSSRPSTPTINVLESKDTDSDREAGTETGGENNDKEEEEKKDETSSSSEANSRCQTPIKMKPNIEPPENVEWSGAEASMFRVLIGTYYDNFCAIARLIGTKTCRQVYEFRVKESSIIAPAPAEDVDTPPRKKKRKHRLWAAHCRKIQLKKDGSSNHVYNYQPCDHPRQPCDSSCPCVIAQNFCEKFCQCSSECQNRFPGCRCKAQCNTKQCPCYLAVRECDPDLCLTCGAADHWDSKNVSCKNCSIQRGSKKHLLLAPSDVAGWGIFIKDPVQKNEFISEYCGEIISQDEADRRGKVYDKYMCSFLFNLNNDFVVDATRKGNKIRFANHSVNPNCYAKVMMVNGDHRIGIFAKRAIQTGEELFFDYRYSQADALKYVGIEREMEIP
Sequence of EZH2 (O75530 whole entry partner, species assumed): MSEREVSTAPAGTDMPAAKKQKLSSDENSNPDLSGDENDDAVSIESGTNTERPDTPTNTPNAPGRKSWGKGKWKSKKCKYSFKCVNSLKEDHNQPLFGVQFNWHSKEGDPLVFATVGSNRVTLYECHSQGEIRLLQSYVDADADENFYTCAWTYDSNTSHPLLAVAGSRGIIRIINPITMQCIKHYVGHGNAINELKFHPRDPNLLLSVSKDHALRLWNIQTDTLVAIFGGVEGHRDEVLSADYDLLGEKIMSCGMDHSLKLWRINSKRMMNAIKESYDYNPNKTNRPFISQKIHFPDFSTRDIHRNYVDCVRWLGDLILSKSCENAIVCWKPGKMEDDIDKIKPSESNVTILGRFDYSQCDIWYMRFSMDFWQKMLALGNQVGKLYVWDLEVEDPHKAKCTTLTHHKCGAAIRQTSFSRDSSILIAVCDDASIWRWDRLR
Sequence of EZH2 (Q15022 whole entry partner, species assumed): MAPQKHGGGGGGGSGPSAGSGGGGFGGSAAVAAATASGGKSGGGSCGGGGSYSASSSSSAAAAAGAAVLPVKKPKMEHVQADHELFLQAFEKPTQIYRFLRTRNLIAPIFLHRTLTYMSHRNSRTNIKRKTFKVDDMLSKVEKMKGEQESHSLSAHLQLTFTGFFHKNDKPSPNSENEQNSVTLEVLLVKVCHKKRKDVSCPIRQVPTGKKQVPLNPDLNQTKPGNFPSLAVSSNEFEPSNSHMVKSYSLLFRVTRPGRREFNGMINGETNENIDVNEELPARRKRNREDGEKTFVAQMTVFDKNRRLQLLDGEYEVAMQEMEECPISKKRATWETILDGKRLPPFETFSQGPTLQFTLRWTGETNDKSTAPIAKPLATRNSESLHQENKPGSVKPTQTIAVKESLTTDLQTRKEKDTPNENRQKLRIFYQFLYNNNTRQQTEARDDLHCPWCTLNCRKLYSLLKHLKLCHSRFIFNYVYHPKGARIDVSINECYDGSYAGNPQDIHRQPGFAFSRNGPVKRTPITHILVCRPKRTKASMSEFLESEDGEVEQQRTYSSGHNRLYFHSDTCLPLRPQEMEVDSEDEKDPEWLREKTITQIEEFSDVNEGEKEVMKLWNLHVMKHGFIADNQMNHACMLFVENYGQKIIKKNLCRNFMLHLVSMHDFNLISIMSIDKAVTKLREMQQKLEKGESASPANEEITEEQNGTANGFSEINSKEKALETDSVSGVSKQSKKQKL

SC-islet cells = assay: Effect of additional FGF2 in stage 6 of differentiation; type: cell-based, human; conditions: FGF2 100 ng/ml added to stage 6 media (Media A) of Protocol 3
Protocol: SC-islet cells were differentiated using Protocol 1, Protocol 2, Protocol 3, or Protocol 3 with the addition of FGF2 (at 100 ng/ml) in stage 6 media (Media A shown in Table 6). Cells were collected on S6D3, S6D7, and […] for analysis. Cells were also tested for insulin content (FIG. 35A) and glucagon content (FIG. 35B).

Compound | % of beta cells in S5D6 cell population [1] | other results
CCn1cc(C(=O)O)c(=O)c2c(N)c(F)c(NC3CCCCC3)cc21 [FOXOi] | 19% and 13% | –
CC[C@H](C)n1cc(C)c2c(C(=O)NCc3c(C)cc(C)[nH]c3=O)cc(-c3ccc(N4CCNCC4)nc3)cc21 [GSK126] | – | selectivity over EZH1 (EZH2; SAM-competitive EZH2 inhibitor): 150 fold
CCCC(=O)O[C@@H]1[C@@H](C)[C@@]2(O)[C@@H](C=C(CO)C[C@]3(O)C(=O)C(C)=C[C@@H]23)[C@@H]2C(C)(C)[C@]12OC(=O)CCC [PDBU, Phorbol 12,13-dibutyrate] | 28% | –
CC(C)[C@H]1C(=O)N[C@H](CO)Cc2cc(NC(=O)/C=C/C=C/c3ccc(C(F)(F)F)cc3)ccc2N1C [TPB, ((2S,5S)-(E,E)-8-(5-(4-(Trifluoromethyl)phenyl)-2,4-pentadienoylamino)benzolactam)] | 17% | beta cell production (in words) ([1]; agents added on S4D5 and/or S5, FIGS. 9-15): did not result in more beta cell production
CCCc1cc(C)[nH]c(=O)c1CNC(=O)c1cc(-c2ccc(N3CCN(C(C)C)CC3)nc2)cc2c1cnn2C(C)C [UNC1999] | – | selectivity compared with GSK126 (EZH2; analogue of GSK126): less selective
Oc1nc(-c2ccc(C(F)(F)F)cc2)nc2c1CSCC2 [XAV] | 5% | –
FGF2: growth factor from the FGF family, added at 100 ng/ml in stage 6 media | – | glucagon-expressing cells (SC-alpha cells) (SC-islet cells): increases
